Earlier results on two molecules are cited in patent EP4635967A1, “OLIGONUCLEOTIDE COMPRISING LIPOPHILIC MONOMER AND USE THEREOF IN NON-LIVER DELIVERY” (Tuojie Biotech (Shanghai) Co., Ltd., priority 2022, dated 2024).

For the series the following is noted: octanol-water partition coefficient, example values in the definition of lipophilic moiety.

Each structure is given as a SMILES string.

In the case of `NCCCCCCO` [6-aminohexanol], the logKow result was “about 0.7”.
With `CC(C)CCC[C@@H](C)[C@H]1CC[C@H]2[C@@H]3CC=C4C[C@@H](OC(=O)NCCCCCCO)CC[C@]4(C)[C@H]3CC[C@]12C` [cholesteryl N-(hexan-6-ol)carbamate], the logKow is 10.7.
